Source: patent publication US7378387B2, “Method of suppressing immune response by reducing intracellular content of glutathione in macrophages and monocytes” (Ajinomoto Co., Inc., priority 1997, dated 2008)

Experiments:
[1] = system: reductive glutathione in MΦ; assay: GSH content in MΦ by ACAS after NAC drinking and/or IL-2 administration (Example 8); assay type: in vivo, DBA/2 female mice; details: NAC 1 mg/ml in city water; IL-2 intraperitoneally twice a day every two days for two weeks; day 14
Method: Three-hundred microliters of a cell suspension adjusted concentration of 3×10^5 cells/ml in an RPMI 1640 medium (phenol red-free) were charged into a chambered coverglass (#136439, supplied by Nunc), and incubated at 37° C. for 2 hours using a CO2 incubator. The culture solution was washed with the medium, and 300 μl of monochlorobimane (supplied by Molecular Plobe) adjusted to 10 μM in the same medium were added thereto. The mixture was charged into a CO2 incubator of 37° C., and the reaction was conducted for 30 minutes. The fluorescent intensity was measured with ACAS. In ACAS, a UV laser was used.
Two groups, namely, a group of 8-week-old DBA/2 female mice which were caused to freely drink city water as in Example 6, and a group of the same female mice which were caused to freely drink city water containing 1 mg/ml of NAC, were prepared. Further, the two groups of the-above-mentioned mice to which human recombinant IL-2 in an amount of 2 pg/0.5 ml/h was intraperitoneally administered twice a day, every two days for two weeks were provided.

IL-6 [2] = assay: IL-6 in culture supernatant of macrophages of NOD mice (Example 22); assay type: in vivo; details: oral 1 mg/0.5 ml/h/day on alternate days, five times, age 4 weeks; control group 3800 pg/ml
Method: (§1) The amount of IL-6 was determined using IL-6 dependent mouse hybridoma MH60 cells (J. Eur. Immunol., vol. 18, p. 951, 1988). One hundred microliters of the culture supernatant were added to 100 μl of the MH60 cell suspension adjusted to 1×10^5 cells/ml in a 10% FCS-containing RPMI medium, and the mixed solution was incubated at 37° C. for 2 days in a CO2 incubator. Subsequently, 10 μl of MTT (supplied by Sigma Co.) solution adjusted to a concentration of 5 mg/ml in the same medium were added thereto, and the reaction was conducted at 37° C. for 5 hours. After the completion of the reaction, the centrifugation was conducted. The supernatant (160 μl) was removed, and 100 μl of a mixture of hydrochloric acid and propanol were added to the residue. The suspension was conducted using a pipetman to dissolve the cells. Immediately after the dissolution, an absorbance of 570 nm was measured with an immunometer (supplied by Bio-Rad).
Through a probe, glutathione ethyl ester was orally given at 1 mg/0.5 ml/h/day to the NOD mice of age 4 weeks on alternate days, in total five times. By the same method as in Example 3, intraperitoneal cells were collected from the mice to sample intraperitoneal macrophages, which were then suspended and adjusted in a phenol red-free RPMI 1640 culture medium supplemented with 10% fetal calf serum to 3×10^6 cells/ml. […]

[3] = system: reduced glutathione in intraperitoneal macrophages; assay: Reduced glutathione in intraperitoneal macrophages of NOD mice by ACAS (Example 22); assay type: in vivo; details: doses given per substance
IL-6 [4] = assay: IL-6 in macrophage culture supernatant, advanced tumor-bearing mice (Example 4); assay type: in vivo, CDF1 mice; details: oral 1 mg/0.5 ml/h for 10 days, COLON 26 mice; control mice 5,200 pg/ml
Method: A stimulator was added to 1×10^6 MΦ, and the incubation was conducted at 37° C. for 2 days in a CO2 incubator. After centrifugation, the culture supernatant was collected.
as §1
The COLON 26 transplantable tumor was implanted subcutaneously in the back portion of CDF1 mice at a density of 5×10^5 cells/mouse. […] Glutathione ethyl ester was orally administered to the mice every day in a dosage of 1 mg/0.5 ml/h. This oral administration was continued for 10 days. […]

[5] = system: dextran sulfate-induced inflammatory bowel disease; assay: Dextran sulfate-induced inflammatory bowel disease in γc knock out mice (Example 14); assay type: in vivo
Method: To 3-week-old γc knock out mice with +/− genotypes were administered 20 μg[…] of (NAC-OMe)2 three times a week for 2 weeks. On day 16, the free drinking of 1% dextran sulfate water was started. […] The γc knock out mice and their wild-type male mice (+/Y- and −/Y) and female mice (+/+, +/− and −/−) were caused to freely drink water containing 1% dextran sulfate as a inflammatory bowel disease model.

## CC(=O)N[C@@H](CS)C(=O)O [NAC, N-acetylcysteine, reference compound]
[1]
  content of reductive glutathione in MΦ (ACAS): markedly increased

## CCOC(=O)CNC(=O)[C@H](CS)NC(=O)CC[C@H](N)C(=O)O [GSH-OEt, glutathione monoethyl ester]
IL-6 [2]
  IL-6 in the culture supernatant of the macrophages: 460 pg/mL
[3]; intraperitoneal dosing on alternate days from age 3-4 weeks
  relative ratio of oxidative macrophages compared with saline-dosed NOD mice: same action is also observed
[3]; oral dosing on alternate days from age 3-4 weeks
  relative ratio of oxidative macrophages compared with saline-dosed NOD mice: same action is also observed
[3]; oral dosing on alternate days from age 3-4 weeks, listed as glutathione ethyl ester
  relative ratio of oxidative macrophages compared with saline-dosed NOD mice: decreased
IL-6 [4]
  amount of IL-6 in macrophage culture supernatant: 642 pg/mL

## COC(=O)[C@H](CSSC[C@H](NC(C)=O)C(=O)OC)NC(C)=O [(NAC-OMe)2, N,N′-diacetylcystine dimethyl ester]
[5]; +/+ mice, non-administration 80%
  occurrence rate of the inflammatory bowel disease: 60%
[5]; +/− mice, 20 μg/h three times a week for 2 weeks, 1% dextran sulfate water from day 16, non-administration 100%
  occurrence rate of the inflammatory bowel disease, Day 30: 16.6%
[5]; +/− mice, 20 μg/h three times a week for 2 weeks, 1% dextran sulfate water, non-administration 57%
  survival rate: 100%
